According to ChEMBL document CHEMBL5329204, “Design, synthesis and biological evaluation of EGFR kinase inhibitors that spans the orthosteric and allosteric sites” (Bioorg Med Chem, 2023):

Legend:
[1] = Inhibition of EGFR L858R/T790M/C797S triple mutant in mouse BaF3 cells assessed as cell growth inhibition measured after 72 hrs by CellTiter-Glo assay; type: cell-based; settings: BaF3, 72 h
NCI-H1975 [2] = test: Anticancer activity against human NCI-H1975 cells assessed as cell growth inhibition measured after 72 hrs by MTT assay; type: functional, cell-based; settings: NCI-H1975, 72 h
[3] = Inhibition of EGFR L858R/T790M double mutant in mouse BaF3 cells assessed as cell growth inhibition measured after 72 hrs by CellTiter-Glo assay; type: cell-based; settings: BaF3, 72 h
[4] = Inhibition of EGFR Del19/T790M/C797S triple mutant in mouse BaF3 cells assessed as cell growth inhibition measured after 72 hrs by CellTiter-Glo assay; type: cell-based; settings: BaF3, 72 h
A549 = test: Anticancer activity against human A549 cells assessed as cell growth inhibition measured after 72 hrs by MTT assay; type: functional, cell-based; settings: A549, 72 h
NCI-H1975 [5] = test: Potency index, ratio of gefitinib IC50 to test compound IC50 for anticancer activity against human NCI-H1975 cells assessed as cell growth inhibition measured after 72 hrs by MTT assay; type: functional

Row | Structure (SMILES) | IC50 (NCI-H1975 [2]) | IC50 (A549) | IC50 [1] | IC50 [3] | IC50 [4] | Ratio IC50 (NCI-H1975 [5])
1 | COc1cc2ncnc(Nc3ccc(NC(=O)C(c4ccccc4)N4Cc5ccccc5C4=O)cc3F)c2cc1OCCCN1CCOCC1 (stereo not drawn) | 9 µM | – | 6.16 µM | – | – | –
2 | COc1cc2ncnc(Nc3cccc(NC(=O)C(c4ccccc4)N4Cc5ccccc5C4=O)c3)c2cc1OCCCN1CCOCC1 (stereo not drawn) | 9.32 µM | – | 9.06 µM | – | – | –
3 | COc1cc2ncnc(NCc3cccc(NC(=O)C(c4ccccc4)N4Cc5ccccc5C4=O)c3)c2cc1OCCCN1CCOCC1 (stereo not drawn) | 8.74 µM | – | 8.83 µM | – | – | –
4 | C=CC(=O)Nc1cc(Nc2nccc(-c3cn(C)c4ccccc34)n2)c(OC)cc1N(C)CCN(C)C [OSIMERTINIB] | – | – | – | – | 0.75 µM | –
5 | COc1cc2ncnc(NNC(=O)c3cccc(NC(=O)C(c4ccccc4)N4Cc5ccccc5C4=O)c3)c2cc1OCCCN1CCOCC1 (stereo not drawn) | > 20 µM | – | > 20 µM | – | – | –
6 | COc1cc2ncnc(N(C)c3ccc(NC(=O)C(c4ccccc4)N4Cc5ccccc5C4=O)cc3)c2cc1OCCCN1CCOCC1 (stereo not drawn) | 6.28 µM | – | 8.45 µM | – | – | –
7 | O=C(Nc1nccs1)C(c1ccccc1)N1Cc2ccccc2C1=O (stereo not drawn) | > 10 µM | – | > 10 µM | – | > 10 µM | –
8 | COc1cc2ncnc(Nc3ccc(NC(=O)C(c4ccccc4)N4Cc5ccccc5C4=O)c(F)c3)c2cc1OCCCN1CCOCC1 (stereo not drawn) | 3.72 µM | – | 5.85 µM | – | – | –

The next lines start with results.

Row | IC50 (NCI-H1975 [2]) | IC50 (A549) | Structure (SMILES) | IC50 [1] | IC50 [3] | IC50 [4] | Ratio IC50 (NCI-H1975 [5])
9 | > 20 µM | > 20 µM | CNC(=O)CN1CCC(Oc2cc3c(Nc4ccc(NC(=O)C(c5ccccc5)N5Cc6ccccc6C5=O)cc4)ncnc3cc2OC)CC1 (stereo not drawn) | > 20 µM | 1.32 µM | > 20 µM | –
10 | > 20 µM | – | COc1cc2ncnc(NNC(=O)c3ccc(NC(=O)C(c4ccccc4)N4Cc5ccccc5C4=O)cc3)c2cc1OCCCN1CCOCC1 (stereo not drawn) | > 20 µM | – | – | –
11 | 1.85 µM | > 20 µM | COCCOc1cc2ncnc(Nc3ccc(NC(=O)C(c4ccccc4)N4Cc5ccccc5C4=O)cc3)c2cc1OCCOC (stereo not drawn) | > 20 µM | 2.69 µM | > 20 µM | –
12 | > 20 µM | > 20 µM | CC(C)(O)CC(=O)NCCn1ccc2ncnc(Nc3ccc(NC(=O)C(c4ccccc4)N4Cc5ccccc5C4=O)cc3)c21 (stereo not drawn) | > 20 µM | > 20 µM | > 20 µM | –
13 | 14.4 µM | – | COc1cc2ncnc(Nc3ccc(CNC(=O)C(c4ccccc4)N4Cc5ccccc5C4=O)cc3)c2cc1OCCCN1CCOCC1 (stereo not drawn) | > 20 µM | – | – | –
14 | 1.69 µM | > 20 µM | COc1cc2ncnc(Nc3ccc(NC(=O)C(c4ccccc4)N4Cc5ccccc5C4=O)cc3)c2cc1OCCCN1CCOCC1 (stereo not drawn) | 5.47 µM | 1.45 µM | 8.13 µM | 6
15 | > 20 µM | – | COc1cc2ncnc(Nc3ccc(C(=O)NNC(=O)C(c4ccccc4)N4Cc5ccccc5C4=O)cc3)c2cc1OCCCN1CCOCC1 (stereo not drawn) | > 20 µM | – | – | –
16 | 5.13 µM | – | COc1cc2ncnc(NNc3ccc(NC(=O)C(c4ccccc4)N4Cc5ccccc5C4=O)cc3)c2cc1OCCCN1CCOCC1 (stereo not drawn) | 7.8 µM | – | – | –
17 | 11 µM | – | COc1cc2ncnc(NCc3ccc(NC(=O)C(c4ccccc4)N4Cc5ccccc5C4=O)cc3)c2cc1OCCCN1CCOCC1 (stereo not drawn) | 3.67 µM | – | 3.46 µM | –
